Test results from ChEMBL document CHEMBL4665820, “Discovery of VU6027459: A First-in-Class Selective and CNS Penetrant mGlu Positive Allosteric Modulator Tool Compound” (ACS Med Chem Lett, 2020).

Experiments:
[1] = Fraction unbound in mouse plasma at 5 uM incubated for 4 hrs by equilibrium dialysis based LC-MS/MS analysis; assay type: ADME, cell-free
[2] = Hepatic intrinsic clearance in rat liver microsomes at 1 uM preincubated for 5 mins followed by NADPH addition and measured up to 45 mins by LC-MS/MS analysis; assay type: ADME, Microsome; conditions: read-out: CLH
[3] = Unbound plasma to brain permeability coefficient, Kp of the compound in Sprague-Dawley rat at 0.2 mg/kg, iv measured after 0.25 hrs by LC-MS/MS analysis; assay type: ADME, organism-based; conditions: read-out: K(p,uu,brain)
[4] = Fraction unbound in rat brain at 5 uM incubated for 6 hrs by equilibrium dialysis based LC-MS/MS analysis; assay type: ADME, tissue-based
[5] = biological target: Sodium-dependent dopamine transporter (Homo sapiens, UniProt Q01959); assay: Displacement of […] from recombinant human Dopamine transporter after 120 mins by scintillation counting analysis; assay type: ADME
Sequence of Sodium-dependent dopamine transporter (Q01959 whole entry): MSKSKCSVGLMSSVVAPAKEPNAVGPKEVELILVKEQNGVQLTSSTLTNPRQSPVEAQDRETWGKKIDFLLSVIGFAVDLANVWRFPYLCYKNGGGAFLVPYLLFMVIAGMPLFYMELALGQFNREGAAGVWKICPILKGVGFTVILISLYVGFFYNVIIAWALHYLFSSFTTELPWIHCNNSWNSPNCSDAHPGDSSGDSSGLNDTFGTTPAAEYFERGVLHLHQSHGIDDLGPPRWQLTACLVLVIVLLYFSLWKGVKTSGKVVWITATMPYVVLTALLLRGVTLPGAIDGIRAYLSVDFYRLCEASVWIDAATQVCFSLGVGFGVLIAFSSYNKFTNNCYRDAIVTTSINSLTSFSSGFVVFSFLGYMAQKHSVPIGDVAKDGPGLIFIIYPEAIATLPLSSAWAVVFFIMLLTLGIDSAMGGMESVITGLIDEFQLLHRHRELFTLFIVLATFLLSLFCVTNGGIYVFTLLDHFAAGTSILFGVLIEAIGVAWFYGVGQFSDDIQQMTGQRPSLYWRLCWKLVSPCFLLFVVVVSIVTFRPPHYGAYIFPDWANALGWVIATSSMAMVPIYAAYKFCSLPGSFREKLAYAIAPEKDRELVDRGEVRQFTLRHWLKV

[6] = Hepatic intrinsic clearance in mouse liver microsomes at 1 uM preincubated for 5 mins followed by NADPH addition and measured up to 45 mins by LC-MS/MS analysis; assay type: ADME, Microsome; conditions: read-out: CLH
[7] = Fraction unbound in rat plasma at 5 uM incubated for 4 hrs by equilibrium dialysis based LC-MS/MS analysis; assay type: ADME, cell-free
[8] = biological target: T1, Metabotropic glutamate receptor 7 (Rattus norvegicus, UniProt P35400); assay: (§1) Positive allosteric modulation of rat mGlu7 receptor expressed in HEK293 cells co-expressing Gai5 assessed as potentiation of L-AP4-induced calcium mobilization preincubated for 140 secs and treated with EC20 L-AP4 for 125 secs and followed by subsequent addition of EC80 L-AP4 by Fluo-4-AM dye based fluorescence assay; assay type: functional, cell-based; conditions: read-out: EC50
T1 sequence (P35400 whole entry): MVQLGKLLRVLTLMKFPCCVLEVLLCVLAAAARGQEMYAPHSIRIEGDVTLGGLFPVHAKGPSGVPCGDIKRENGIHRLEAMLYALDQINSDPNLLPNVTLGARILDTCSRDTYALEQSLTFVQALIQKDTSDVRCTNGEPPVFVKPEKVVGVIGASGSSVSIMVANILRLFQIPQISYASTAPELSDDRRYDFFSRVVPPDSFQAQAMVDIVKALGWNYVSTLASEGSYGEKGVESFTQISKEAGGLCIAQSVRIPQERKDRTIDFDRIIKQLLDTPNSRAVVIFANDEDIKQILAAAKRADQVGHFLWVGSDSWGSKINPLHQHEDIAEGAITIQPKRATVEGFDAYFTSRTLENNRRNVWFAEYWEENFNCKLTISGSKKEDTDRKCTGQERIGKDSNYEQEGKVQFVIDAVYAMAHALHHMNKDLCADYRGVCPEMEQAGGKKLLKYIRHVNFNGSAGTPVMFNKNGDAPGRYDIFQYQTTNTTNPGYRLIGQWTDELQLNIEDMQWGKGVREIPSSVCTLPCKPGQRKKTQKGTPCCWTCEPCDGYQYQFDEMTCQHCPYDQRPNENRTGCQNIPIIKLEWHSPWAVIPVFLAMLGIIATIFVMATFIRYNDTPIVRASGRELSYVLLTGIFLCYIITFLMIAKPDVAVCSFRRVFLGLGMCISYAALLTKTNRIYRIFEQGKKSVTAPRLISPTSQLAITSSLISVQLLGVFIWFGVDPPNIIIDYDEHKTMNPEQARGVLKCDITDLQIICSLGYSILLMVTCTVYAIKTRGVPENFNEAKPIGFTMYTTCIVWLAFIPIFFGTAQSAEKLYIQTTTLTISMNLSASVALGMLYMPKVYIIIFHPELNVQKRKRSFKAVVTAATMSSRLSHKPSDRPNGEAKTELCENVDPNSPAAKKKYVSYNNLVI

[9] = biological target: Metabotropic glutamate receptor 7 (Rattus norvegicus) (UniProt P35400); assay: as §1, with “assay relative to maximal induction of L-AP4” for “assay”; assay type: functional, cell-based; conditions: filed as positive allosteric modulator, time 140.0 sec
Sequence of Metabotropic glutamate receptor 7 (Rattus norvegicus) (P35400 whole entry): as above

[10] = biological target: Metabotropic glutamate receptor 7 (Rattus norvegicus) (UniProt P35400); assay: Positive allosteric modulation of rat mGlu7 expressed in HEK293 cells co- expressing GIRK assessed as potentiation of L-AP4-induced thallium flux incubated for 140 sec by FluoZin2-AM dye based fluorescence analysis relative to maximal induction of L-AP4; assay type: cell-based; conditions: filed as positive allosteric modulator
[11] = Plasma to brain permeability coefficient, Kp of the compound in Sprague-Dawley rat at 0.2 mg/kg, iv measured after 0.25 hrs by LC-MS/MS analysis; assay type: ADME, organism-based
[12] = Fraction unbound in mouse brain at 5 uM incubated for 6 hrs by equilibrium dialysis based LC-MS/MS analysis; assay type: ADME, tissue-based
[13] = biological target: T1, Metabotropic glutamate receptor 7; assay: Positive allosteric modulation of rat mGlu7 expressed in HEK293 cells co- expressing GIRK assessed as potentiation of L-AP4-induced thallium flux incubated for 140 sec by FluoZin2-AM dye based fluorescence analysis; assay type: cell-based

Row | SMILES | EC50 [8] | Activity [9] | other results
1 | N#Cc1cnc2c(N3CCOCC3)cccc2c1N1CCN(c2ccccc2F)CC1 | 1300 nM | 72% | fraction unbound at 4 h, 5 µM [1]: 0.01; CLint scaled at 1 µM [2]: 58.6 mL/min/kg; Kp uu at 0.25 h [3]: 1.24; fraction unbound at 6 h, 5 µM [4]: 0.002; Ki [5]: > 10000 nM; CLint scaled at 1 µM [6]: 76.2 mL/min/kg; fraction unbound at 4 h, 5 µM [7]: 0.01; Activity [10]: 29.5%; Kp at 0.25 h [11]: 6.84; fraction unbound at 6 h, 5 µM [12]: 0.002; EC50 [13]: 710 nM
2 | N#Cc1cnc2c(-n3ccnc3)cccc2c1N1CCN(c2ccccc2F)CC1 | 6700 nM | 81% | –
3 | N#Cc1cnc2c(OCC3CCOC3)cccc2c1N1CCN(c2ccccc2F)CC1 (stereo in doubt; (-)-20f) | – | 89% | –
4 | CC1CN(c2cccc3c(N4CCN(c5ccccc5F)CC4)c(C#N)cnc23)CCO1 (centres undefined) | 7100 nM | 84% | –
5 | N#Cc1cnc2c(O)cccc2c1N1CCN(c2ccccc2F)CC1 | > 10000 nM | 90% | –
6 | N#Cc1cnc2c(O)cc(F)cc2c1N1CCN(c2ccccc2F)CC1 | > 10000 nM | 90% | –
7 | N#Cc1cnc2c(OC3CCC3)cccc2c1N1CCN(c2ccccc2F)CC1 | 1800 nM | 67% | –
8 | N#Cc1cnc2c(OCC3CCOC3)cccc2c1N1CCN(c2ccccc2F)CC1 (single isomer, unassigned; (+)) [listing 1 of 2 here] | – | 77% | –
9 | N#Cc1cnc2c(N3CCCCC3)cccc2c1N1CCN(c2ccccc2F)CC1 | > 10000 nM | 24% | –
10 | N#Cc1cnc2c(OC3CCOC3)cccc2c1N1CCN(c2ccccc2F)CC1 (racemic) [listing 1 of 2 here] | 1300 nM | – | fraction unbound at 4 h, 5 µM [1]: 0.02; CLint scaled at 1 µM [2]: 54 mL/min/kg; Kp uu at 0.25 h [3]: 0.79; fraction unbound at 6 h, 5 µM [4]: 0.006; Ki [5]: > 10000 nM; CLint scaled at 1 µM [6]: 75.8 mL/min/kg; fraction unbound at 4 h, 5 µM [7]: 0.03; Kp at 0.25 h [11]: 4.36; fraction unbound at 6 h, 5 µM [12]: 0.01; EC50 [13]: 1000 nM
11 | N#Cc1cnc2c(OC3CCOC3)cccc2c1N1CCN(c2ccccc2F)CC1 (single isomer, unassigned; (+)) [listing 1 of 2 here] | – | 85% | –
12 | N#Cc1cnc2c(OCC3CCOC3)cccc2c1N1CCN(c2ccccc2F)CC1 (single isomer, unassigned; (+)) [listing 2 of 2 here] | 1900 nM | – | –
13 | N#Cc1cnc2c(OCC3CCOC3)cccc2c1N1CCN(c2ccccc2F)CC1 (racemic) | 1300 nM | – | –
14 | N#Cc1cnc2c(-n3cncn3)cccc2c1N1CCN(c2ccccc2F)CC1 | > 10000 nM | 23% | –
15 | N#Cc1cnc2c(OC3CCOC3)cccc2c1N1CCN(c2ccccc2F)CC1 (single isomer, unassigned; (+)) [listing 2 of 2 here] | 1100 nM | – | –
16 | N#Cc1cnc2c(OC3CCC3)cc(F)cc2c1N1CCN(c2ccccc2F)CC1 | > 10000 nM | 23% | –
17 | N#Cc1cnc2c(OC3CCOC3)cccc2c1N1CCN(c2ccccc2F)CC1 (racemic) [listing 2 of 2 here] | – | 74% | Activity [10]: 62.2%
18 | N#Cc1cnc2c(OC3CCOC3)cccc2c1N1CCN(c2ccccc2F)CC1 (single isomer, unassigned; (-)) | 1100 nM | – | –
